Laboratory results as given in US12122761B2, “2-azaspiro[3.4]octane derivatives as M4 agonists” (NOVARTIS AG, priority 2019, dated 2024).

Key:
[1] = tested on: hyperactivity in mice induced by the stimulant d-amphetamine; conditions: general statement on clinically efficacious muscarinic antipsychotics; xanomeline used as positive control (1.0 mg/kg, SC); cited from earlier work
[2] = target: T1, human cloned CHRM3 receptor (M3_CHO cells) (Homo sapiens, UniProt P20309); test: CHRM3 Ca++ Flux Assay (agonist mode, FDSS 7000EX); assay type: cell-based; conditions: for EC50: agonist mode, geometric mean if tested more than once, read-out: M3 FDSS EC50
T1 construct: expressed in transfected cells; host or cells: CHO-K1
Procedure: (§1) The above examples were characterized by measuring the intracellular mobilization of Ca++ ions caused by signaling events mediated by the receptor. The Intra-cellular Calcium flux levels were captured by the highly sensitive Ca++ indicator, Calcium Assay Kit (BD Biosciences, Catalog Number 640178). The fluorescent activity from all receptors were monitored by the fluorescent imager, FDSS 7000EX (Hamamatsu) over a span of 3 minutes.
(§2) CHO-K1 cells stably expressing the human cloned CHRM3 receptor (M3_CHO cells) were grown and maintained in a monolayer culture with F12/HAM (Life Technologies) supplemented with 10% Fetal Bovine Serum, 1× Pen-Strep, and 0.4 mg/mL Geneticin in a humidified atmosphere (5% CO2) at 37° C. The cultures were grown to 80-9 0% confluency in T150 flasks (Corning) and washed with 1×DPBS and lifted with 0.05% Trypsin (Life Technologies). The cells were then spun (1K rpm, 3 minutes) and frozen using Recovery Cell Culture Freezing Media (Gibco Technologies). Cells were stored in liquid nitrogen and thawed a day before the assay. A similar procedure was used for cells stably expressing the human cloned CHRM5 receptor (M5_CHO).
(§3) Prior to the day of the assay, stable M3_CHO or M5_CHO cells were thawed and plated on Greiner 384 well black TC treated plates at 12K cells/well in F12/DMEM supplemented with 10% FBS (Hyclone) and kept overnight in a humidified atmosphere (5% CO2) at 37° C. The next day, cells were loaded with Ca^++ dye (BD Biosciences) using Loading Buffer (HBSS +Ca/+Mg, 20 mM HEPES, 2.5 mM Probenecid) and placed back in cell incubator for a minimum of 1 hour. After incubation, the dye was replaced with Assay Buffer (HBSS −Ca/−Mg, 20 mM HEPES, 2.5 mM Probenecid) and kept at room temperature in the dark before running on cell imager. The FDSS 7000EX (Hamamatsu) was used to acquire Ca^++ traces from cells treated with 11 point dose response of compounds in triplicate in order to generate dose response curves in agonist mode. All compounds were serially diluted in DMSO then prepared in Assay Buffer for Ca^++ flux studies. The dose response curves were generated from the average of triplicate wells obtained from each data point and used a non-linear regression of four parameter dose response algorithm. The Percent Activity (PA) was measured to EC100 of Carbachol.

[3] = target: T2, human cloned CHRM5 receptor (M5_CHO) (Homo sapiens, UniProt P08912); test: CHRM5 Ca++ Flux Assay (agonist mode, FDSS 7000EX); assay type: cell-based; conditions: Percent Activity measured to EC100 of Carbachol; read-out: M5 FDSS PA
T2 construct: expressed in transfected cells; host or cells: CHO (M5_CHO)
T2 sequence (P08912 1-532): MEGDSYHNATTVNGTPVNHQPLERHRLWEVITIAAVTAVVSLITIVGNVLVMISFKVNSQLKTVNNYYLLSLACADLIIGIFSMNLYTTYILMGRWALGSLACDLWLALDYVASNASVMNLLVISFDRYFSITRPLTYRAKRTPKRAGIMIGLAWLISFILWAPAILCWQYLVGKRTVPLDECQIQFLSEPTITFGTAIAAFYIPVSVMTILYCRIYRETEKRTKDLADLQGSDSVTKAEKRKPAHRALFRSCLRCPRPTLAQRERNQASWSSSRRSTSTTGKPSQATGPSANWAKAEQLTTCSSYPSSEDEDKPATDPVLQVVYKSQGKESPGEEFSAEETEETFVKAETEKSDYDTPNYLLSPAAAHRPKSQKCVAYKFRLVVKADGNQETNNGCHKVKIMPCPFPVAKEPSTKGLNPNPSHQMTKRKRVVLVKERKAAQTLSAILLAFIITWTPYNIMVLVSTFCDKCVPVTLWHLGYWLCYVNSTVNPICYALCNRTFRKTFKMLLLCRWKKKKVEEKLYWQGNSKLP
Procedure: as §1, §2, §3

[4] = Percent Activity measured to EC100 of Carbachol

T1 sequence (P20309 whole entry): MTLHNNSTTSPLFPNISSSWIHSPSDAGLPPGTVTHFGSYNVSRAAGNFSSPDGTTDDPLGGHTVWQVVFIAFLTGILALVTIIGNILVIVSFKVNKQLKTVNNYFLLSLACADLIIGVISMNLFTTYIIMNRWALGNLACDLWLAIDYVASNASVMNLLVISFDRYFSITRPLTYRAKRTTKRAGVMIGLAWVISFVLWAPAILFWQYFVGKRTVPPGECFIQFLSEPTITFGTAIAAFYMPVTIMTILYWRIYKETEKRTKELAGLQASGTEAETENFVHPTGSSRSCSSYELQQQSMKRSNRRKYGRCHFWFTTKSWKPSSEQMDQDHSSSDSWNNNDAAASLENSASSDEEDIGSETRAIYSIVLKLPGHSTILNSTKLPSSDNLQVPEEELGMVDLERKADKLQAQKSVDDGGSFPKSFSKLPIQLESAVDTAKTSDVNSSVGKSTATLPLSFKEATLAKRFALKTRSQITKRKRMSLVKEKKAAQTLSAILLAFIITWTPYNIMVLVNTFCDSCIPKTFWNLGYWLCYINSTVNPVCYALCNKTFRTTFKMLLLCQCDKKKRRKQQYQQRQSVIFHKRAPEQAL

| M3 FDSS PA [2, 4] | EC50 [2] | Emax ([2]; Percent Activity measured to EC100 of Carbachol, read-out: M3 FDSS PA) | Emax [3] | Structure (SMILES) | activity in the amphetamine induced hyperlocomotion assay [1] |
| --- | --- | --- | --- | --- | --- |
| – | – | – | – | CCCCCCOc1nsnc1C1=CCCN(C)C1 [xanomeline] | active |
| 0% | > 25 µM | – | – | COc1ccccc1C1CCN([C@H]2CCC3(C2)CN(C(=O)C2COC2)C3)CC1 (single isomer, unassigned) [Example 8C, (S)-(6-(4-(2-methoxyphenyl)piperidin-1-yl)-2-azaspiro[3.4]octan-2-yl)(oxetan-3-yl)methanone or (R)-(6-(4-(2-methoxyphenyl)piperidin-1-yl)-2-azaspiro[3.4]octan-2-yl)(oxetan-3-yl)methanone] | – |
| – | – | 0% | 0% | COc1cc(F)ccc1C1CCN([C@@H]2CCC3(C2)CN(C(=O)C2COC2)C3)CC1 [Example 6C, (R)-(6-(4-(4-fluoro-2-methoxyphenyl)piperidin-1-yl)-2-azaspiro[3.4]octan-2-yl)(oxetan-3-yl)methanone] | – |
| 0% | > 25 µM | – | – | COc1ccccc1C1CCN([C@H]2CCC3(C2)CN(C(=O)C2COC2)C3)CC1 (single isomer, unassigned) [Example 8D, (S)-(6-(4-(2-methoxyphenyl)piperidin-1-yl)-2-azaspiro[3.4]octan-2-yl)(oxetan-3-yl)methanone or (R)-(6-(4-(2-methoxyphenyl)piperidin-1-yl)-2-azaspiro[3.4]octan-2-yl)(oxetan-3-yl)methanone] | – |
